Usually IC50 stands for the concentration that inhibits the measured activity by half.

The structures appear in SMILES notation. Read-outs that look alike come from different tables or passages of the source.

For experiment [1], the system named is T47D (PI3Kα H1047R mutant) cells. Kind of experiment: CellTiter-Glo 2.0 luminescent cell viability assay, 72 hours, T47D cells. In kind it is cell-based. As for the experimental part:
This Example illustrates that exemplary compounds of the present invention decrease the viability of cells.
(§1) The ability of a compound of Formula (I) to decrease the viability of cells was measured using CellTiter-Glo 2.0 (CTG) Luminescent Cell Viability Assay (#G9241) obtained from Promega (Madison, WI).
To prepare assay plates for viability assays, cells were trypsinized, resuspended in fresh media, and viable cells were counted utilizing trypan blue exclusion. T47D, SKBR3, or MKN1 cells were seeded at 1000 cells in 30 μl per well in a solid white flat bottom 384 cell culture plate (Perkin Elmer #6007680) and incubated at 37° C. overnight.
(§2) Assay day 1, cells were dosed using an Echo Liquid Handler (Beckman Coulter) with compounds at a 10 um starting concentration and serially diluted (1:4) for a total of 10 concentrations. Cells were incubated for approximately 72 hours with the compounds (solubilized in DMSO) at 37° C. After 72 hours of treatment, cell plates were equilibrated to room temperature before adding 15 μl of CTG to each well, plates were then covered in aluminum foil to protect from light, incubated at room temperature for 30 minutes on a microtiter plate shaker, and luminescence readings were collected using a CLARIOstar microplate reader (BMG Labtech, Germany). Percent of vehicle control values were plotted as log (inhibitor) vs. response-Variable slope (four parameters) for curve fitting and IC50 values were determined using XLfit.

Experiment [2] concerns SKBR3 (PI3Kα wild type) cells. Kind of experiment: CellTiter-Glo 2.0 luminescent cell viability assay, 72 hours, SKBR3 cells. In kind it is cell-based. The following applies: Homo sapiens, SK-BR-3, 72 h. How it is done:
as §1
To prepare assay plates for viability assays, cells were trypsinized, resuspended in fresh media, and viable cells were counted utilizing trypan blue exclusion.
as §2
On the technique in general: ATP-based viability assays read luminescence as a measure of living cells.

Setting [3] is: Homo sapiens, T47D, 72 h, T47D (PI3Kα H1047R mutant) cells, CellTiter-Glo, approximately 72 hours, read-out: T47D (H1047R mutant) Viability IC50.
[4] abbreviates: SKBR3 (PI3Kα wild type) cells, CellTiter-Glo, approximately 72 hours, read-out: SKBR3 (WT) Viability IC50.
[5] abbreviates: T47D (PI3Kα H1047R mutant) cells, CellTiter-Glo, approximately 72 hours, read-out: T47D (H1047R mutant) Viability IC50.

Take `Cc1cc([C@@H](C)Nc2ccccc2C(=O)O)c2nc(N3C4CCC3CC(c3ccnn3C)C4)c(C)c(=O)n2c1` (stereo partly drawn) [Example 10-2, 2-(((1R)-1-(3,7-dimethyl-2-(3-(1-methyl-1H-pyrazol-5-yl)-8-azabicyclo[3.2.1]octan-8-yl)-4-oxo-4H-pyrido[1,2-a]pyrimidin-9-yl)ethyl)amino)benzoic acid]: the IC50 in experiment [1] (Homo sapiens, T47D, 72 h, read-out: T47D (H1047R mutant) Viability IC50 (nM)) was 4.72 nM; in experiment [2] (read-out: SKBR3 (WT) Viability IC50 (nM)) it was above 10000 nM.

Take `Cc1cc([C@@H](C)Nc2ccccc2C(=O)O)c2nc(N3CCC(N4CCCCC4=O)CC3)c(C)c(=O)n2c1` [Example 10-3, (R)-2-((1-(3,7-dimethyl-4-oxo-2-(2-oxo-[1,4′-bipiperidin]-1′-yl)-4H-pyrido[1,2-a]pyrimidin-9-yl)ethyl)amino)benzoic acid]: the IC50 is 8.12 nM in experiment [1] (setting [3]) and above 10000 nM in experiment [2] (setting [4]). In the same order, the values of `CCOCC1CCN(c2nc3c([C@@H](C)Nc4ccccc4C(=O)O)cc(C)cn3c(=O)c2C)CC1` [Example 10-4, (R)-2-((1-(2-(4-(ethoxymethyl)piperidin-1-yl)-3,7-dimethyl-4-oxo-4H-pyrido[1,2-a]pyrimidin-9-yl)ethyl)amino)benzoic acid] are 12.3 nM and above 10000 nM. Take `Cc1cc([C@@H](C)Nc2ccccc2C(=O)O)c2nc(N3CCN(C(=O)CC4CC4)CC3)c(C)c(=O)n2c1` [Example 10-6, (R)-2-((1-(2-(4-(2-cyclopropylacetyl)piperazin-1-yl)-3,7-dimethyl-4-oxo-4H-pyrido[1,2-a]pyrimidin-9-yl)ethyl)amino)benzoic acid]: the IC50 in experiment [1] (setting [3]) was 15 nM; in experiment [2] (setting [4]), above 10000 nM. In the same order, the values of `Cc1cc([C@@H](C)Nc2ccccc2C(=O)O)c2nc(N3CCc4ccccc4C3)c(C)c(=O)n2c1` [Example 10-7, (R)-2-((1-(2-(3,4-dihydroisoquinolin-2(1H)-yl)-3,7-dimethyl-4-oxo-4H-pyrido[1,2-a]pyrimidin-9-yl)ethyl)amino)benzoic acid] are 16.9 nM and above 10000 nM. For `Cc1cc([C@@H](C)Nc2ccccc2C(=O)O)c2nc(N3CCCC4(CCC4O)C3)c(C)c(=O)n2c1` (stereo partly drawn) [Example 10-8, 2-(((1R)-1-(2-(1-hydroxy-6-azaspiro[3.5]nonan-6-yl)-3,7-dimethyl-4-oxo-4H-pyrido[1,2-a]pyrimidin-9-yl)ethyl)amino)benzoic acid], the IC50 in experiment [1] (setting [3]) was 24.2 nM; in experiment [2] (setting [4]), above 10000 nM.

Turning to `Cc1cc([C@@H](C)Nc2ccccc2C(=O)O)c2nc(N3CCC(c4ccncc4)C3)c(C)c(=O)n2c1` (stereo partly drawn) [Example 10-9, 2-(((1R)-1-(3,7-dimethyl-4-oxo-2-(3-(pyridin-4-yl)pyrrolidin-1-yl)-4H-pyrido[1,2-a]pyrimidin-9-yl)ethyl)amino)benzoic acid], the IC50 in experiment [1] (setting [3]) was 24.8 nM; in experiment [2] (setting [4]) it was above 10000 nM. Consider `Cc1cnn(C2CCN(c3nc4c([C@@H](C)Nc5ccccc5C(=O)O)cc(C)cn4c(=O)c3C)CC2)c1` [Example 10-16, (R)-2-((1-(3,7-dimethyl-2-(4-(4-methyl-1H-pyrazol-1-yl)piperidin-1-yl)-4-oxo-4H-pyrido[1,2-a]pyrimidin-9-yl)ethyl)amino)benzoic acid], for which the half-inhibitory concentration (IC50) in experiment [1] (setting [3]) is 37.3 nM; in experiment [2] (setting [4]), above 10000 nM.

`Cc1cc([C@@H](C)Nc2ccc(C)nc2C(=O)O)c2nc(N3CCC(F)(F)CC3)c(C#N)c(=O)n2c1` [Example 10-17, (R)-3-((1-(3-cyano-2-(4,4-difluoropiperidin-1-yl)-7-methyl-4-oxo-4H-pyrido[1,2-a]pyrimidin-9-yl)ethyl)amino)-6-methylpicolinic acid]: the half-maximal inhibitory concentration (IC50) in experiment [1] (setting [3]) is 38.4 nM; in experiment [2] (setting [4]), above 10000 nM. As to `C[C@@H](Nc1ccccc1C(=O)O)c1cc(Cl)cn2c(=O)c(C#N)c(N3CCC(F)(F)CC3)nc12` [Example 10-26, (R)-2-((1-(7-chloro-3-cyano-2-(4,4-difluoropiperidin-1-yl)-4-oxo-4H-pyrido[1,2-a]pyrimidin-9-yl)ethyl)amino)benzoic acid], the IC50 in experiment [1] (setting [3]) is 50.5 nM; in experiment [2] (setting [4]), above 10000 nM. For the compound `CO[C@@H]1CCN(c2nc3c([C@@H](C)Nc4ccccc4C(=O)O)cc(C)cn3c(=O)c2C)CC1(F)F` [Example 10-28, 2-(((R)-1-(2-((R)-3,3-difluoro-4-methoxypiperidin-1-yl)-3,7-dimethyl-4-oxo-4H-pyrido[1,2-a]pyrimidin-9-yl)ethyl)amino)benzoic acid], the half-inhibitory concentration (IC50) in experiment [1] (setting [3]) was 53 nM; in experiment [2] (setting [4]) it was above 10000 nM. Regarding `CCc1cc([C@@H](C)Nc2ccccc2C(=O)O)c2nc(N3CCC(F)(F)CC3)c(C#N)c(=O)n2c1` [Example 10-46, (R)-2-((1-(3-cyano-2-(4,4-difluoropiperidin-1-yl)-7-ethyl-4-oxo-4H-pyrido[1,2-a]pyrimidin-9-yl)ethyl)amino)benzoic acid], the IC50 in experiment [1] (setting [3]) was 65 nM; in experiment [2] (setting [4]), above 10000 nM. Consider `C[C@@H](Nc1ccccc1C(=O)O)c1cc(C2CC2)cn2c(=O)c(C#N)c(N3CCC(F)(F)CC3)nc12` [Example 10-83, (R)-2-((1-(3-cyano-7-cyclopropyl-2-(4,4-difluoropiperidin-1-yl)-4-oxo-4H-pyrido[1,2-a]pyrimidin-9-yl)ethyl)amino)benzoic acid], for which the 50% inhibitory concentration (IC50) in experiment [1] (setting [3]) was 78.7 nM; in experiment [2] (setting [4]) it was above 10000 nM. As to `Cc1cc([C@@H](C)Nc2ccccc2C(=O)O)c2nc(N3CCC(n4ccc(C(F)(F)F)n4)CC3)c(C)c(=O)n2c1` [Example 10-104, (R)-2-((1-(3,7-dimethyl-4-oxo-2-(4-(3-(trifluoromethyl)-1H-pyrazol-1-yl)piperidin-1-yl)-4H-pyrido[1,2-a]pyrimidin-9-yl)ethyl)amino)benzoic acid], the figures for the IC50 in experiment [1] (setting [3]) and in experiment [2] (setting [4]) were 87.8 nM and above 10000 nM, respectively. For `Cc1cc([C@@H](C)Nc2ccc(F)nc2C(=O)O)c2nc(N3CCC(F)(F)CC3)c(C)c(=O)n2c1` [Example 10-105, (R)-3-((1-(2-(4,4-difluoropiperidin-1-yl)-3,7-dimethyl-4-oxo-4H-pyrido[1,2-a]pyrimidin-9-yl)ethyl)amino)-6-fluoropicolinic acid], the results for the IC50 in experiment [1] (setting [5]) and in experiment [2] (setting [4]) were 89.4 nM and above 10000 nM, respectively. `Cc1cc([C@@H](C)Nc2cccnc2C(=O)O)c2nc(N3CCC(F)(F)CC3)c(C#N)c(=O)n2c1` [Example 10-121, (R)-3-((1-(3-cyano-2-(4,4-difluoropiperidin-1-yl)-7-methyl-4-oxo-4H-pyrido[1,2-a]pyrimidin-9-yl)ethyl)amino)picolinic acid]: the IC50 in experiment [1] (setting [3]) was 103 nM; in experiment [2] (setting [4]) it was above 10000 nM.

Regarding `Cc1cc([C@@H](C)Nc2ccccc2C(=O)O)c2nc(N3Cc4ccc(C(F)F)cc4C3)c(C)c(=O)n2c1` [Example 10-128, (R)-2-((1-(2-(5-(difluoromethyl)isoindolin-2-yl)-3,7-dimethyl-4-oxo-4H-pyrido[1,2-a]pyrimidin-9-yl)ethyl)amino)benzoic acid], the values for the IC50 in experiment [1] (setting [3]) and in experiment [2] (setting [4]) were 43.2 nM and above 10000 nM, respectively. Take `CNS(=O)(=O)c1ccc(N2CCN(c3nc4c([C@@H](C)Nc5ccccc5C(=O)O)cc(C)cn4c(=O)c3C)CC2)cc1` [Example 10-129, (R)-2-((1-(3,7-dimethyl-2-(4-(4-(N-methylsulfamoyl)phenyl)piperazin-1-yl)-4-oxo-4H-pyrido[1,2-a]pyrimidin-9-yl)ethyl)amino)benzoic acid]: the IC50 in experiment [1] (setting [3]) is 46.7 nM; in experiment [2] (setting [4]), above 10000 nM. As to `Cc1cc([C@@H](C)Nc2ccccc2C(=O)O)c2nc(N3CCC4(CCOC4)CC3)c(C)c(=O)n2c1` [Example 10-130, (R)-2-((1-(3,7-dimethyl-4-oxo-2-(2-oxa-8-azaspiro[4.5]decan-8-yl)-4H-pyrido[1,2-a]pyrimidin-9-yl)ethyl)amino)benzoic acid], the IC50 in experiment [1] (setting [5]) was 46.9 nM; in experiment [2] (setting [4]), above 10000 nM. For `Cc1cc([C@@H](C)Nc2ccccc2C(=O)O)c2nc(N3CCN(Cc4cccnc4)CC3C)c(C)c(=O)n2c1` (stereo partly drawn) [Example 10-132, 2-(((1R)-1-(3,7-dimethyl-2-(2-methyl-4-(pyridin-3-ylmethyl)piperazin-1-yl)-4-oxo-4H-pyrido[1,2-a]pyrimidin-9-yl)ethyl)amino)benzoic acid], the IC50 was 51 nM in experiment [1] (setting [3]) and above 10000 nM in experiment [2] (setting [4]). Consider `Cc1cc(C(C)Nc2cccc(F)c2C(=O)O)c2nc(N3Cc4ccccc4C3)c(C)c(=O)n2c1` (stereo not drawn) [Example 11-368, 2-fluoro-6-((1-(2-(isoindolin-2-yl)-3,7-dimethyl-4-oxo-4H-pyrido[1,2-a]pyrimidin-9-yl)ethyl)amino)benzoic acid], for which the IC50 in experiment [1] (setting [3]) was found to be 856 nM. Same read-out and setting: the same measure for `Cc1cc(C(C)Nc2ccccc2C(=O)O)c2nc(N3CCN(C)C(=O)C3)cc(=O)n2c1` (stereo not drawn) [Example 11-384, 2-((1-(7-methyl-2-(4-methyl-3-oxopiperazin-1-yl)-4-oxo-4H-pyrido[1,2-a]pyrimidin-9-yl)ethyl)amino)benzoic acid]: above 10000 nM.

Source of the values: patent publication US20260078120A1, “SUBSTITUTED PYRIDOPYRIMIDINONES” (MIRATI THERAPEUTICS, INC., priority 2022, published 2026).
